Experimental data reported in patent US10155743B2, “Glutarimide derivatives, use thereof, pharmaceutical composition based thereon and methods for producing glutarimide derivatives” (OBSCHESTVO S OGRANICHENNOI OTVETSTVENNOSTIYU …, priority 2013, dated 2018).
Like-named read-outs stand apart in the source and are kept apart here.

Assays:
[1] = system: mucous membrane of nasal passages, formalin-induced acute rhinosinusitis; test: Acute rhinosinusitis rat model (induced by intranasal 7.5% formalin solution); format: in vivo, Wistar rats; settings: rats; for Macroscopic changes in the mucous membrane of nasal passages: Muculent or mucopurulent catarrh (number of animals) / Macroscopic changes in the mucous membrane of nasal passages: Without changes (number of animals): count out of n of the group; for The number of caliciform cells within 1 mm of the mucous membrane of the nasal septum: M ± m
Procedure: Morphological studies of histologic preparations were conducted with a Leica DMLS light-optical microscope (Leica Microsystems, Germany). Micro-morphometric assessment was performed by using an ocular micrometer on a Leica DMLB microscope.
Acute rhinosinusitis was induced by intranasal administration of 20 μl of 7.5% formalin solution (aqueous solution comprising 40% formaldehyde, 8% methyl alcohol, and 52% water) to each nasal passage of rats.
Administration of formalin to rat nasal passages leads to the dissemination of inflammation to adjacent tissues, resulting in a clinical pattern similar to the symptoms of rhinosinusitis in a human.
After an acclimatization period, the following groups were formed: • intact animals administered intragastrically a saline solution in an amount of 0.2 ml, the induction of acute rhinosinusitis was not performed; • a control group consisted of the animals administered intragastrically a saline solution in an amount of 0.2 ml for 7 days after induction of acute rhinosinusitis; • animals administered intramuscularly dexamethasone at a dose of 0.33 mg/kg for 7 days after induction of acute rhinosinusitis; and • animals administered the tested compounds at a dose of 27 mg/kg for 7 days after induction of acute rhinosinusitis.
Clinical observation of each animal was performed every day at least twice daily.
In the experiment with Wistar rats, the induction of acute rhinosinusitis by administration of a 7.5% formalin solution to nasal passages caused in the control group of animals pronounced pathological changes characterizing the development of an acute inflammation process in the nasal mucous. The caused pathology was characterized by congestion, hyperplasia, focal necrosis of the nasal meatus mucous membrane, an increased number of caliciform cells, pronounced infiltration by mononuclear cells and leucocytes, and mucus hyperproduction by submucosal glands.
The mucous and submucous membranes of both nasal passages (respiratory and olfactory regions) of the experimental animals were subjected to a morphological analysis to evaluate a specific activity of the compounds.
For microscopic examination, the sections were stained with hematoxylin and eosin. Detection of acid mukopolysaccharides, the production of which is increased in an inflammation, was performed by histochemical staining of the preparation with Alcian Blue (pH 2.5). The comparison and histological evaluation of changes were performed versus the group of intact rats.
After slaughter, the gross appearance of inflammation in the nasal passages was studied in each animal. Histological, hystochemical and morphological studies of rats were intended to evaluate the following characteristics of nasal passages: congestion of the mucous membrane; hyperplasia and necrosis of nasal epithelium, the number of caliciform cells within 1 mm of the mucous membrane of the nasal septum, and the character of inflammation.
In this study, the efficiency of the mucociliary system was evaluated by the number of caliciform cells and, as a consequence, microscopic changes in the mucous membrane of the nasal passages.

[2] = system: Coxsackie A2-virus (strain HCXV A2); test: Antiviral activity against Coxsackie virus in vivo (mortality of infected mice); design: species or system white mice; settings: for inhibition in vivo at 30 mg/kg / mortality at 30 mg/kg: Mus musculus, po; for inhibition in vivo at 30 mg/kg: 168 h, read-out: Protective index (%); for mortality at 30 mg/kg: 360 h, read-out: Total mortality rate, %; for Average expectancy life (days), Vs. control: difference to virus control
[3] = tested compounds 27 mg/kg for 7 days
[4] = mice, 10LD50 HCXV A2, 30 mg/kg orally once daily for 7 days
[5] = mice, 10LD50 HCXV A2 i.m., 30 mg/kg orally once daily for 7 days from 24 h after infection, 15 days monitoring
[6] = tested compounds 27 mg/kg for 7 days after induction
[7] = dexamethasone 0.33 mg/kg intramuscularly for 7 days

| Structure (SMILES) | Macroscopic changes in the mucous membrane of nasal passages: Muculent or mucopurulent catarrh (number of animals) [1, 3] | Macroscopic changes in the mucous membrane of nasal passages: Without changes (number of animals) [1, 3] | inhibition in vivo at 30 mg/kg [2, 4] [%] | mortality at 30 mg/kg [2, 5] [%] | Average expectancy life (days), Relative [2, 4] [days] | Average expectancy life (days), Vs. control [2, 4] | also measured |
| --- | --- | --- | --- | --- | --- | --- | --- |
| CC1CC(=O)N(CCc2cnc[nH]2)C(=O)C1 [Compound 2] | 3 | 5 | 40 | 42.9 | 22.4 | +9.5 days |  |
| O=C1CCCC(=O)N1CCc1nc2ccccc2s1 [Compound 7, 1-[2-(1H-benzothiazol-2-yl)ethyl]piperidine-2-dione] | 13 | 5 |  |  |  |  |  |
| O=C1CCCC(=O)N1CCc1ncc[nH]1 [Compound 8] | 3 | 3 |  |  |  |  | The number of caliciform cells within 1 mm of the mucous membrane of the nasal septum [1, 6]: 34.5 ± 0.8 |
| O=C1CCCC(=O)N1CCc1ccccn1 [Compound 13] |  |  | 36 | 46.7 | 19.0 | +8.3 days |  |
| O=C1CCCC(=O)N1CCN1CCCCC1 [Compound 14] |  |  |  |  | 21.4 | +10.4 days | inhibition in vivo at 30 mg/kg [2]: 36%; mortality at 30 mg/kg [2]: 50% |
| COC(=O)C(Cc1c[nH]c2ccccc12)N1C(=O)CCCC1=O (stereo not shown) [Compound 21] | 5 | 3 |  |  |  |  |  |
| CCOC(=O)C(Cc1c[nH]c2ccccc12)N1C(=O)CCCC1=O (stereo not shown) [Compound 27] | 4 | 4 |  |  |  |  |  |
| O=C1CC(O)CC(=O)N1CCc1cnc[nH]1 [Compound 28] | 4 | 4 |  |  |  |  |  |
| O=C1CCC(O)C(=O)N1CCc1cnc[nH]1 (stereo not shown) [Compound 29] |  |  | 50 | 35.7 | 26.7 | +13.7 days |  |
| CC(Cc1cnc[nH]1)N1C(=O)CCCC1=O (stereo not shown) [Compound 32] | 5 | 3 | 33 | 42.9 | 22.2 | +10.0 days |  |
| O=C1CCCC(=O)N1CCCc1c[nH]cn1 [Compound 33] | 5 | 3 |  |  |  |  |  |
| O=C(O)C(Cc1ccoc1)N1C(=O)CCCC1=O (stereo not shown) [Compound 44] | 4 | 4 | 55 | 28.6 | 32.3 | +20.1 days |  |
| CC1CCC(=O)N(CCc2c[nH]cn2)C1=O (stereo not shown) [Compound 56] | 3 | 5 |  |  |  |  |  |
| NC1CC(=O)N(CCc2c[nH]cn2)C(=O)C1 [Compound 65] | 4 | 4 |  |  |  |  |  |
| NC1CCC(=O)N(CCc2cnc[nH]2)C1=O (stereo not shown) [Compound 67] |  |  | 50 | 35.7 | 27.0 | +16.2 days |  |
| CC1CCC(=O)N(C(Cc2cnc[nH]2)C(=O)O)C1=O (stereo not shown) [Compound 70] | 4 | 4 |  |  |  |  |  |
| CC1CC(=O)N(C(Cc2cnc[nH]2)C(=O)O)C(=O)C1 (stereo not shown) [Compound 71] |  |  | 44 | 35.7 | 28.6 | +16.4 days |  |
| NC1CCC(=O)N(C(Cc2c[nH]cn2)C(=O)O)C1=O (stereo not shown) [Compound 75] | 5 | 3 | 50 | 35.7 | 27.3 | +14.3 days |  |
| O=C(O)C(Cc1cnc[nH]1)N1C(=O)CCC(O)C1=O (stereo not shown) [Compound 76] | 6 | 2 |  |  |  |  |  |
| O=C1CCCC(=O)N1CCC1CNCCO1 (stereo not shown) [Compound 89] |  |  | 27 | 53.3 | 17.7 | +7.0 days |  |
| O=C1CCCC(=O)N1CCC1COCCN1 (stereo not shown) [Compound 90] |  |  | 50 | 35.7 | 25.9 | +15.1 days |  |
| O=C1CCCC(=O)N1CCc1nc2ccccc2[nH]1 [Compound 124] | 8 | 4 |  |  |  |  | The number of caliciform cells within 1 mm of the mucous membrane of the nasal septum [1, 6]: 37.6 ± 1.4 |
| C[C@@H]1C[C@H]2[C@@H]3CCC4=CC(=O)C=C[C@]4(C)[C@@]3(F)[C@@H](O)C[C@]2(C)[C@@]1(O)C(=O)CO [Dexamethasone, dexamethasone, reference compound] |  |  |  |  |  |  | The number of caliciform cells within 1 mm of the mucous membrane of the nasal septum ([1]; dexamethasone 0.33 mg/kg intramuscularly for 7 days after induction): 34.8 ± 2.1; Macroscopic changes in the mucous membrane of nasal passages: Muculent or mucopurulent catarrh (number of animals) [1, 7]: 3; Macroscopic changes in the mucous membrane of nasal passages: Without changes (number of animals) [1, 7]: 3 |
